Consider one cell line from the supplement of paper PMC10307832.

Assay in all cases: relative viability (nuclei count vs DMSO), 5 days (fraction); higher = more cells survive
Compound in one experiment: C(C(=O)C(=O)O)Br [Bromopyruvate]
The gist of the method:
(§1)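 Only plates meeting two conditions passed: control CV below 25% and at least one doubling. Lung cancer cell lines, kept overnight at 37 °C in 1536-well plates, were pinned with five library-drug doses (not always all listed) √10 apart on vehicle-anchored plates and grown 5 days without medium change. A one-step fix, permeabilisation and Hoechst stain preceded 4× imaging and MetaXpress nuclear counting. Viability equals treated-well nuclei divided by vehicle-well nuclei, as the median over plates.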

Compound in another experiment: CC(O)(CS(=O)(=O)c1ccc(F)cc1)C(=O)Nc1ccc(C#N)c(C(F)(F)F)c1 [Bicalutamide]
The essentials:
as §1

Compound in experiment [1]: C(C(=O)C(=O)O)Br [Bromopyruvate] + CC(=O)c1c(C)c2cnc(Nc3ccc(N4CCNCC4)cn3)nc2n(C2CCCC2)c1=O [Palbociclib] (partner 0.5 µM)
The essentials:
(§2)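 Medians of duplicate plates are given as relative viability. That measure is the nuclei count in treated wells divided by the count in vehicle wells. Counts were taken on 4× images of lung cancer cell lines in 1536-well plates, 5 days after pin-tool dosing the day after seeding with one drug alone or a fixed anchor-drug dose plus five library-drug doses (not always all listed) in √10 steps.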

Compound in experiment [2]: C(C(=O)C(=O)O)Br [Bromopyruvate] + Cc1cc(Nc2cc(N3CCN(C)CC3)nc(Sc3ccc(NC(=O)C4CC4)cc3)n2)n[nH]1 [Tozasertib] (partner 0.1 µM)
The gist of the method: as §2

Turning to UMC-11, the relative viability was 1.03 in the experiment with Bromopyruvate (1 µM); 0.989 with Bromopyruvate (3.162 µM); 0.908 in the experiment with Bromopyruvate (10 µM); 0.958 with Bromopyruvate (31.62 µM); 1 with Bromopyruvate (100 µM); 0.958 with Bicalutamide (0.08 µM). Besides, the relative viability with Bicalutamide (0.253 µM) came to 0.909; with Bicalutamide (0.8 µM), 1.17; in the experiment with Bicalutamide (2.53 µM), 0.938; in experiment [1] (first compound 1 µM) it was 0.343; in experiment [1] (first compound 3.162 µM), 0.353; in experiment [1] (first compound 10 µM) it was 0.324. The relative viability is 0.367 in experiment [1] (first compound 31.62 µM); 0.356 in experiment [1] (first compound 100 µM); 0.201 in experiment [2] (first compound 1 µM); 0.196 in experiment [2] (first compound 3.162 µM); 0.188 in experiment [2] (first compound 10 µM); 0.208 in experiment [2] (first compound 31.62 µM). The relative viability in experiment [2] (first compound 100 µM) was determined as 0.213.
